Assay results: ChEMBL document CHEMBL1122174, “Behavioral and serotonin receptor properties of 4-substituted derivatives of the hallucinogen 1-(2,5-dimethoxyphenyl)-2-aminopropane” (J Med Chem, 1982)

Target: Serotonin (5-HT) receptor
Assay: Binding affinity at rat 5-hydroxytryptamine receptor.
Format: protein assay

SMILES | pA2
COc1cc([N+](=O)[O-])c(OC)cc1C[C@@H](C)N | 7.49
COc1cc(CC(C)N)c(OC)cc1I (racemic) | 7.49
COc1cc([N+](=O)[O-])c(OC)cc1CC(C)N (racemic) | 7.07
COc1cc(C[C@@H](C)N)c(OC)cc1I | 7.63
COc1cc(CC(C)N)c(OC)cc1F (racemic) | 7.2
CCOc1cc(OC)c(CC(C)N)cc1OC (racemic) | 6.78

Organism: Homo sapiens
Assay: Hallucinogenic potency was determined in humans
Format: functional

SMILES | HHP [mg]
COc1cc(OC)c(OC)cc1CC(C)N (racemic) | 20
COc1cc(CC(C)N)c(OC)cc1C (racemic) [DOM] | 2
COc1cc(CC(C)N)c(OC)cc1I (racemic) | 0.8
COc1cc(C[C@@H](C)N)c(OC)cc1Br | 0.4
CCOc1cc(OC)c(CC(C)N)cc1OC (racemic) | 30

Test system: Rattus norvegicus
Assay: Dose required to produce 50% hallucinogenic potency in rat was determined at a dose of 3.0 mg/kg
Format: functional

SMILES | DOM [%] | ED50 [mg/kg]
COc1cc(OC)c(OC)cc1CC(C)N (racemic) | 20 | –
COc1cc(CC(C)N)c(OC)cc1C (racemic) [DOM] | – | 0.44

Test system: Rattus norvegicus
Assay: Dose required to produce 50% hallucinogenic potency in rat was determined at a dose of 3 mg/kg
Format: functional

SMILES | DOM [%]
COc1cc(CC(C)N)c(OC)cc1F (racemic) | 88

Test system: Rattus norvegicus
Assay: Dose required to produce 50% hallucinogenic potency in rat was determined at a dose of 3.5 mg/kg
Format: functional

SMILES | DOM [%]
COc1cc(OC)c(OC)cc1CC(C)N (racemic) | 59

Test system: Rattus norvegicus
Assay: Dose required to produce 50% hallucinogenic potency in rat was determined at a dose of 4 mg/kg
Format: functional

SMILES | DOM [%]
COc1cc(OC)c(OC)cc1CC(C)N (racemic) | 70

Test system: Rattus norvegicus
Assay: Dose required to produce 50% hallucinogenic potency in rat was determined at a dose of 5 mg/kg
Format: functional

SMILES | DOM [%]
CCOc1cc(OC)c(CC(C)N)cc1OC (racemic) | 16

Test system: Rattus norvegicus
Assay: Dose required to produce 50% hallucinogenic potency in rat was determined at a dose of 5.0 mg/kg
Format: functional

SMILES | DOM [%]
COc1cc(OC)c(OC)cc1CC(C)N (racemic) | 81

Test system: Rattus norvegicus
Assay: Dose required to produce 50% hallucinogenic potency in rat was determined at a dose of 5.5 mg/kg
Format: functional

SMILES | DOM [%]
COc1cc(OC)c(OC)cc1CC(C)N (racemic) | 90

Test system: Rattus norvegicus
Assay: Dose required to produce 50% hallucinogenic potency in rat was determined at a dose of 8 mg/kg
Format: functional

SMILES | DOM [%]
CCOc1cc(OC)c(CC(C)N)cc1OC (racemic) | 68

Test system: Rattus norvegicus
Assay: Dose required to produce 50% hallucinogenic potency in rat was determined at a dose of 0.1 mg/kg
Format: functional

SMILES | DOM [%]
COc1cc(C[C@@H](C)N)c(OC)cc1Br | 47

Test system: Rattus norvegicus
Assay: Dose required to produce 50% hallucinogenic potency in rat was determined at a dose of 0.125 mg/kg
Format: functional

SMILES | DOM [%]
COc1cc(C[C@@H](C)N)c(OC)cc1I | 18

Test system: Rattus norvegicus
Assay: Dose required to produce 50% hallucinogenic potency in rat was determined at a dose of 0.15 mg/kg
Format: functional

SMILES | DOM [%]
COc1cc(C[C@@H](C)N)c(OC)cc1Br | 79

Test system: Rattus norvegicus
Assay: Dose required to produce 50% hallucinogenic potency in rat was determined at a dose of 0.2 mg/kg
Format: functional

SMILES | DOM [%]
COc1cc(C[C@@H](C)N)c(OC)cc1Br | 91

Test system: Rattus norvegicus
Assay: Dose required to produce 50% hallucinogenic potency in rat was determined at a dose of 0.25 mg/kg
Format: functional

SMILES | DOM [%]
COc1cc(CC(C)N)c(OC)cc1I (racemic) | 31
COc1cc(C[C@@H](C)N)c(OC)cc1I | 47

Test system: Rattus norvegicus
Assay: Dose required to produce 50% hallucinogenic potency in rat was determined at a dose of 0.5 mg/kg
Format: functional

SMILES | DOM [%]
COc1cc([N+](=O)[O-])c(OC)cc1C[C@@H](C)N | 44
COc1cc(CC(C)N)c(OC)cc1I (racemic) | 41
COc1cc([N+](=O)[O-])c(OC)cc1CC(C)N (racemic) | 32
COc1cc(C[C@@H](C)N)c(OC)cc1I | 75
COc1cc(CC(C)N)c(OC)cc1F (racemic) | 6

Test system: Rattus norvegicus
Assay: Dose required to produce 50% hallucinogenic potency in rat was determined at a dose of 0.75 mg/kg
Format: functional

SMILES | DOM [%]
COc1cc([N+](=O)[O-])c(OC)cc1C[C@@H](C)N | 61
COc1cc(CC(C)N)c(OC)cc1I (racemic) | 80
COc1cc(C[C@@H](C)N)c(OC)cc1I | 96
COc1cc(CC(C)N)c(OC)cc1F (racemic) | 25

Test system: Rattus norvegicus
Assay: Dose required to produce 50% hallucinogenic potency in rat was determined at a dose of 1 mg/kg
Format: functional

SMILES | DOM [%]
COc1cc([N+](=O)[O-])c(OC)cc1C[C@@H](C)N | 93
COc1cc(CC(C)N)c(OC)cc1I (racemic) | 93
COc1cc([N+](=O)[O-])c(OC)cc1CC(C)N (racemic) | 55
COc1cc(CC(C)N)c(OC)cc1F (racemic) | 43

Test system: Rattus norvegicus
Assay: Dose required to produce 50% hallucinogenic potency in rat was determined at a dose of 1.5 mg/kg
Format: functional

SMILES | DOM [%]
COc1cc([N+](=O)[O-])c(OC)cc1CC(C)N (racemic) | 87
COc1cc(CC(C)N)c(OC)cc1F (racemic) | 45

Test system: Rattus norvegicus
Assay: Dose required to produce 50% hallucinogenic potency in rat was determined at a dose of 2.0 mg/kg
Format: functional

SMILES | DOM [%]
CCOc1cc(OC)c(CC(C)N)cc1OC (racemic) | 2

Test system: Rattus norvegicus
Assay: Dose required to produce 50% hallucinogenic potency in rat was determined at a dose of 2.5 mg/kg
Format: functional

SMILES | DOM [%]
COc1cc(CC(C)N)c(OC)cc1F (racemic) | 66

Organism: Rattus norvegicus
Assay: Dose at which the rats perform 50% appropriate drug -lever responding was determined
Format: functional

SMILES | ED50 [mg/kg]
COc1cc(OC)c(OC)cc1CC(C)N (racemic) | 3.59
COc1cc([N+](=O)[O-])c(OC)cc1C[C@@H](C)N | 0.57
COc1cc(CC(C)N)c(OC)cc1I (racemic) | 0.42
COc1cc(C[C@@H](C)N)c(OC)cc1Br | 0.1
COc1cc([N+](=O)[O-])c(OC)cc1CC(C)N (racemic) | 0.76
COc1cc(C[C@@H](C)N)c(OC)cc1I | 0.26
COc1cc(CC(C)N)c(OC)cc1F (racemic) | 1.45
CCOc1cc(OC)c(CC(C)N)cc1OC (racemic) | 6.33

Test system: Rattus norvegicus
Assay: Number of rats responding out of 5 treated rats at a dose of 0.10 mg/Kg
Format: functional

SMILES | No. of animals
COc1cc(C[C@@H](C)N)c(OC)cc1Br | 5

Test system: Rattus norvegicus
Assay: Number of rats responding out of 5 treated rats at a dose of 0.125 mg/Kg
Format: functional

SMILES | No. of animals
COc1cc(C[C@@H](C)N)c(OC)cc1I | 5

Test system: Rattus norvegicus
Assay: Number of rats responding out of 5 treated rats at a dose of 0.15 mg/Kg
Format: functional

SMILES | No. of animals
COc1cc(C[C@@H](C)N)c(OC)cc1Br | 5

Test system: Rattus norvegicus
Assay: Number of rats responding out of 5 treated rats at a dose of 0.25 mg/Kg
Format: functional

SMILES | No. of animals
COc1cc(CC(C)N)c(OC)cc1I (racemic) | 5
COc1cc(C[C@@H](C)N)c(OC)cc1I | 5

Test system: Rattus norvegicus
Assay: Number of rats responding out of 5 treated rats at a dose of 0.5 mg/Kg
Format: functional

SMILES | No. of animals
COc1cc([N+](=O)[O-])c(OC)cc1C[C@@H](C)N | 5
COc1cc(CC(C)N)c(OC)cc1I (racemic) | 5
COc1cc([N+](=O)[O-])c(OC)cc1CC(C)N (racemic) | 5
COc1cc(C[C@@H](C)N)c(OC)cc1I | 5
COc1cc(CC(C)N)c(OC)cc1F (racemic) | 5

Test system: Rattus norvegicus
Assay: Number of rats responding out of 5 treated rats at a dose of 0.75 mg/Kg
Format: functional

SMILES | No. of animals
COc1cc([N+](=O)[O-])c(OC)cc1C[C@@H](C)N | 5
COc1cc(CC(C)N)c(OC)cc1I (racemic) | 5
COc1cc(C[C@@H](C)N)c(OC)cc1I | 5
COc1cc(CC(C)N)c(OC)cc1F (racemic) | 5

Test system: Rattus norvegicus
Assay: Number of rats responding out of 5 treated rats at a dose of 1 mg/Kg
Format: functional

SMILES | No. of animals
COc1cc([N+](=O)[O-])c(OC)cc1C[C@@H](C)N | 5
COc1cc(CC(C)N)c(OC)cc1I (racemic) | 5
COc1cc([N+](=O)[O-])c(OC)cc1CC(C)N (racemic) | 4
COc1cc(CC(C)N)c(OC)cc1F (racemic) | 5

Test system: Rattus norvegicus
Assay: Number of rats responding out of 5 treated rats at a dose of 1.5 mg/Kg
Format: functional

SMILES | No. of animals
COc1cc([N+](=O)[O-])c(OC)cc1CC(C)N (racemic) | 5

Test system: Rattus norvegicus
Assay: Number of rats responding out of 5 treated rats at a dose of 10 mg/Kg
Format: functional

SMILES | No. of animals
CCOc1cc(OC)c(CC(C)N)cc1OC (racemic) | 1

Test system: Rattus norvegicus
Assay: Number of rats responding out of 5 treated rats at a dose of 2 mg/Kg
Format: functional

SMILES | No. of animals
CCOc1cc(OC)c(CC(C)N)cc1OC (racemic) | 5

Test system: Rattus norvegicus
Assay: Number of rats responding out of 5 treated rats at a dose of 2.5 mg/Kg
Format: functional

SMILES | No. of animals
COc1cc(CC(C)N)c(OC)cc1F (racemic) | 5

Test system: Rattus norvegicus
Assay: Number of rats responding out of 5 treated rats at a dose of 3.5 mg/Kg
Format: functional

SMILES | No. of animals
COc1cc(OC)c(OC)cc1CC(C)N (racemic) | 5

Test system: Rattus norvegicus
Assay: Number of rats responding out of 5 treated rats at a dose of 4 mg/Kg
Format: functional

SMILES | No. of animals
COc1cc(OC)c(OC)cc1CC(C)N (racemic) | 5

Test system: Rattus norvegicus
Assay: Number of rats responding out of 5 treated rats at a dose of 5 mg/Kg
Format: functional

SMILES | No. of animals
COc1cc(OC)c(OC)cc1CC(C)N (racemic) | 5
CCOc1cc(OC)c(CC(C)N)cc1OC (racemic) | 5

Test system: Rattus norvegicus
Assay: Number of rats responding out of 5 treated rats at a dose of 5.5 mg/Kg
Format: functional

SMILES | No. of animals
COc1cc(OC)c(OC)cc1CC(C)N (racemic) | 6

Test system: Rattus norvegicus
Assay: Number of rats responding out of 5 treated rats at a dose of 8 mg/Kg
Format: functional

SMILES | No. of animals
CCOc1cc(OC)c(CC(C)N)cc1OC (racemic) | 5

Test system: Rattus norvegicus
Assay: Number of rats responding out of 5 treated rats at a dose of 0.20 mg/Kg
Format: functional

SMILES | No. of animals
COc1cc(C[C@@H](C)N)c(OC)cc1Br | 5

Test system: Rattus norvegicus
Assay: Number of rats responding out of 5 treated rats at a dose of 9 mg/Kg
Format: functional

SMILES | No. of animals
CCOc1cc(OC)c(CC(C)N)cc1OC (racemic) | 4

Test system: Rattus norvegicus
Assay: Dose required to produce 50% hallucinogenic potency in rat was determined at a dose of 9 mg/kg
Format: functional

SMILES | DOM [%]
CCOc1cc(OC)c(CC(C)N)cc1OC (racemic) | 85
